58 compounds from the METLIN SMRT retention time set (Domingo-Almenara et al. 2019) can be followed below.

Structures are written as SMILES.

The data set in a line: gradient 5% acetonitrile 3 min, to 50% in 2 min, to 85% in 15 min, held 3 min, 100 µL/min. Particulars: column: Zorbax Extend-C18 2.1 x 50 mm; eluents: water / acetonitrile, 0.1% formic acid. Summed up: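 Values are retention times taken from adduct peaks that software picked and an analyst inspected. The pure standards were run as mixtures of ~100 molecules on HPLC linked to a quadrupole time-of-flight mass spectrometer, in positive and negative ionization mode. A Zorbax Extend-C18 column (2.1 × 50 mm, 1.8 μm) was used at 100 μL/min with water and acetonitrile, each including 0.1% formic acid.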
Consider `Cc1cccc(CN2CCN(CC(=O)NC3CCN(Cc4ccccc4)CC3)C(=O)C2=O)c1`, for which the RP-LC retention time turned out to be 609 s.

Consider `CCOc1ccc(-c2nc(Cn3nnc(C(=O)Nc4ccccc4OC)c3C)c(C)o2)cc1`, for which the RP-LC retention time turned out to be 1150 s.

`CCOCCCNC(=O)c1cc2n(n1)CCCN(Cc1ccc(Cl)cc1)C2=O` returned an RP-LC retention time of 797 s.

The compound `Cc1ccc(-c2nc3ccc(C)cn3c2Nc2ccc3c(c2)OCCO3)cc1` displayed an RP-LC retention time of 715 s.

In turn, `O=C(NCc1ccccc1)C1CCCN(c2nnc3ccc(Cl)cn23)C1` (stereo not drawn) gave an RP-LC retention time of 739 s.

As to `O=C(NCc1ccco1)c1cc(-c2cccnc2)nc2ccc(Cl)cc12`, the RP-LC retention time came to 788 s.

In turn, `COc1ccc(CNC(=O)c2[nH]c3cc(C)sc3c2CN(C)C)c(OC)c1` came in with an RP-LC retention time of 691 s.

For the compound `Cc1ccsc1C(=O)NCCn1c(=O)n(Cc2ccccc2)c2cccnc21`, the RP-LC retention time is 806 s.

`O=C(NCc1ccc2c(c1)OCO2)C1Cn2cccc2C(=O)N1Cc1cccnc1` (stereo not drawn): the RP-LC retention time turned out to be 594 s.

Turning to `Cc1nn(-c2ccc(Cl)cc2)c(C)c1S(=O)(=O)N1CCC(C(=O)NCC2CCCO2)CC1` (stereo not drawn), the RP-LC retention time stood at 843 s.

Turning to `O=C(Nc1ccc(Br)cc1F)NC1CCN(c2ccc(F)cc2)C1=O` (stereo not drawn), the RP-LC retention time came to 937 s.

In turn, `COCCNC(=O)C1CCN(c2cncnc2N2CCCC2)CC1` had an RP-LC retention time of 580 s.

Turning to `COc1ccc(-c2nc3ccc(Cl)cn3c2Nc2ccc3c(c2)OCCO3)cc1`, the RP-LC retention time came to 750 s.

With `O=C1NCCOc2ccc(NS(=O)(=O)c3ccc(F)c(Cl)c3)cc21`, the RP-LC retention time was 685 s.

Compound `O=C(CC1CCCC1)Nc1cnc(-c2cccnc2)nc1` yielded an RP-LC retention time of 689 s.

With `CC1CCN(S(=O)(=O)c2cccn(CC(=O)OC(C)(C)C)c2=O)CC1`, the RP-LC retention time was found to be 965 s.

With `CNC(=O)C1CCCN1C(=O)Nc1ccc(C)cc1` (stereo not drawn), the RP-LC retention time came out at 640 s.

On to `Cc1nc(-c2cccc(-c3noc(CNC(=O)Cc4ccc(Cl)cc4)n3)c2)cs1`, for which the RP-LC retention time worked out at 986 s.

Take `Cc1nc(N2CCN(c3ccccc3F)CC2)nc2c1C(=O)CC(c1ccccc1O)C2` (stereo not drawn): the RP-LC retention time was determined as 1190 s.

`CCOc1ccccc1C(=O)NCC1CCN(Cc2ccccn2)CC1`: the RP-LC retention time stood at 561 s.

Compound `Fc1ccc(-c2nnc(Cc3nc(Cc4ccccc4)no3)o2)cc1` gave an RP-LC retention time of 931 s.

Regarding `O=C(O)CCC(=O)Nc1sc2c(c1C(=O)Nc1ccccc1)CCC2`, the RP-LC retention time was found to be 902 s.

`COCCCN(CC(=O)N1CCc2sccc2C1COc1ccccc1)C(=O)C(C)C` (stereo not drawn): the RP-LC retention time worked out at 892 s.

As for `O=C(NCc1ccco1)c1ccc(OCc2nc(C3CC3)cs2)cc1`, the RP-LC retention time came out at 825 s.

Compound `COc1ccc(C2C(C(=O)NCC3CCCO3)CCC(=O)N2c2cc(OC)c(OC)c(OC)c2)cc1` (stereo not drawn) had an RP-LC retention time of 631 s.

On to `Cc1ccc2cc(CCC(=O)NCCCN3CCOCC3)c(=O)[nH]c2c1`, for which the RP-LC retention time worked out at 577 s.

For the compound `O=C(c1cc(-c2cccnc2)n[nH]1)N1CCCC(C(=O)N2CCN(C(=O)c3ccco3)CC2)C1` (stereo not drawn), the RP-LC retention time turned out to be 556 s.

With `O=C([C@@H]1C[C@H](F)CN1C(=O)c1cccs1)N1CCCCC1`, the RP-LC retention time was found to be 662 s.

`CC(C)CCNC(=O)C1(C)Cn2nc(C(=O)NCC(C)c3ccccc3)cc2C(=O)N1C` (stereo not drawn) gave an RP-LC retention time of 833 s.

`CCCN1CCn2cc(S(=O)(=O)Nc3ccc(OC)c(Cl)c3)cc2C1=O` showed an RP-LC retention time of 770 s.

The compound `CC(C)n1c(=O)sc2cc(S(=O)(=O)N3CCC(C(=O)NCCC4=CCCCC4)CC3)ccc21` registered an RP-LC retention time of 1020 s.

The compound `O=C(Nc1nnc(-c2ccsc2)o1)C1CC(=O)N(c2ccc(Cl)cc2)C1` (stereo not drawn) returned an RP-LC retention time of 718 s.

Take `Cc1cc(=O)n(CC(=O)Nc2ccc(F)cc2)c(N2CCN(c3ccccc3)CC2)n1`: the RP-LC retention time turned out to be 828 s.

Take `CC(C)(C)N(Cc1ccc2c(c1)OCO2)C(=O)/C=C\S(=O)c1ccccc1` (stereo not drawn): the RP-LC retention time is 902 s.

In the case of `CC1CCN(CCNc2ncccc2-c2nnc(-c3ccc(Cl)cc3)o2)CC1`, the RP-LC retention time turned out to be 813 s.

Consider `Cc1ccc(-c2noc(CN3N=NC4C(=O)N(c5cccc(F)c5)C(=O)C43)n2)cc1C` (stereo not drawn), for which the RP-LC retention time was 897 s.

Regarding `CCCCOc1ccc(NC(=O)c2oc3cc(C)c(Cl)cc3c2C)c2cccnc12`, the RP-LC retention time was 1030 s.

For the compound `CCN1CCN(C(=O)CCc2cc(OC)c(OC)c(OC)c2)c2cccnc21`, the RP-LC retention time was found to be 613 s.

In the case of `COc1ccc(CNC(=O)c2nnn(Cc3nc(-c4ccccc4)oc3C)c2N)cc1OC`, the RP-LC retention time was found to be 859 s.

`Cc1noc([C@@H]2CC(F)(F)CN2S(=O)(=O)c2cccc(F)c2)n1` had an RP-LC retention time of 891 s.

`Cc1ccc(CNc2c(-c3ccc(Cl)cc3)nc3ncccn23)cc1` came in with an RP-LC retention time of 867 s.

`CCc1noc(NC(C)=O)c1-c1ccc(OC)c(S(=O)(=O)Nc2cc(C)ccc2OC)c1`: the RP-LC retention time amounted to 854 s.

Compound `Cc1ccc(-c2noc(Cn3ccn(-c4cccc(Cl)c4)c(=O)c3=O)n2)cc1` showed an RP-LC retention time of 920 s.

Take `CCOc1ccc(NC(=O)N2C[C@@H](F)C[C@H]2C(=O)N2CCc3ccccc3C2)cc1`: the RP-LC retention time is 776 s.

The compound `CCCn1c(CCNC(=O)c2ccc(CC)cc2)nc2cccnc21` had an RP-LC retention time of 723 s.

The compound `CC1=C(c2ccc(F)cc2)S(=O)(=O)N=C1N1CCCN(C(=O)CCC(C)C)CC1` gave an RP-LC retention time of 879 s.

With `Cc1ccc2c(Nc3ccc(F)cc3F)c(C(=O)N3CCCC3)cnc2n1`, the RP-LC retention time is 596 s.

As to `CN1C(=O)c2cccnc2Sc2cc(NC(=O)CCc3ccccc3)ccc21`, the RP-LC retention time is 818 s.

`Cc1cccc(N2CCN(Cc3nc(-c4ccc(N5CCC(C)CC5)nc4)no3)CC2)c1` registered an RP-LC retention time of 1110 s.

For `O=C(COc1ccc(Cl)cc1)N1CCc2nc[nH]c2C1`, the RP-LC retention time is 606 s.

Take `O=C(NCCc1ccccc1)C1CC(=O)N(CCc2c[nH]c3ccc(Cl)cc23)C1` (stereo not drawn): the RP-LC retention time came to 809 s.

`O=C(NCCN1CCCCC1)C1CCN(c2ccc(-c3ccc(F)cc3)nn2)CC1` returned an RP-LC retention time of 567 s.

For the compound `O=C(NCC1CC1)C1CCCN(c2cnc3nccnc3c2)C1` (stereo not drawn), the RP-LC retention time is 643 s.

Compound `COc1cc(-c2ccc(C)cc2)nc2ccc(NC(=O)c3ccco3)cc12` registered an RP-LC retention time of 713 s.

With `Cc1ccc(N2CC(C(=O)NCCn3cnc(-c4ccccc4)cc3=O)CC2=O)cc1C` (stereo not drawn), the RP-LC retention time came out at 689 s.

For `Cc1cc(NC(=O)Cn2c(=O)c3cc(C4CC4)nn3c3ncccc32)ccc1F`, the RP-LC retention time stood at 818 s.

Turning to `Cc1ccc(-c2noc(C(=O)N3CCCC3)n2)cc1S(=O)(=O)N1CCN(c2ccccn2)CC1`, the RP-LC retention time was 700 s.

Compound `COc1ccc(-c2noc(CCCC(=O)Nc3nc(-c4ccc(Cl)cc4)c(C)s3)n2)cc1` displayed an RP-LC retention time of 1190 s.
